Data taken from publication PMC4502317, “Two helices in the third intracellular loop determine anoctamin 1 (TMEM16A) activation by calcium” (Pflugers Archiv, 2014).
Where no end group is shown, it is not given here. The star is where a group is joined. Biotin = O=C1N[C@H]2[C@H](CS[C@H]2CCCCC(=O)*)N1

Tests used:
[1] = Circular dichroism spectroscopy of reference helix peptides; type: physicochemical
Method: To confirm whether the reference helix of ANO1 forms an α-helix, circular dichroism spectroscopy was performed with synthetic peptides spanning the reference helix regions of ANO1 (652-LFEIGIPKMKKFIRYLKL-669) and ANO2 (604-IFEIGVPKLKKLFRKLKD-621).

ANO1 [2] = assay: Inhibition of Eact-activated ANO1 currents by helix peptides, inside-out patches; type: cell-based, mouse; details: n = 5
Method: Fig. 6 Eact, a synthetic agonist of ANO1 acts on the ICL3 region. a Example traces depicting activation by Eact of WT ANO1 (upper left), 444-EEEEE-448 (Δ5E, upper right), ΔICL3 (lower left), and 659-QMQQFIAYLQ-668 mutant (lower right). b Example traces of Eact-induced ANO1 currents, which were blocked by bath application of the reference helix peptide (Ref helix peptide, 651-[…]-671, 4 μM, lower panel) but not by the Ca^2+ sensor helix peptide (CSH peptide, 700-TPEYMEMIIQFGF-712, 10 μM, middle panel). To test the effects of peptide, 1 μM Eact was applied three times. At the second Eact challenge, each peptide was also applied. c A summary of the effects of applications of helix peptides on Eact-induced ANO1 currents. Current amplitudes were normalized to the current amplitude obtained after of the first Eact challenge. Reference helix peptide (black square, n = 5), its Ala-mutant peptide (black inverted triangle, n = 5), Ca^2+ sensor helix peptide (black triangle, n = 5), or vehicle (white circle, n = 14) was applied at the second Eact challenge. *p < 0.05 compared to the relative response of vehicle application, one-way ANOVA followed by Newman-Keuls post hoc test
We then applied the two helix peptides to see if these peptides compete with Eact in activating ANO1.
All mutants were generated from the wild-type construct, mouse ANO1 (pEGFP-N1-mANO1). […]
(§1) Borosilicate glass pipettes (World Precision Instruments, Sarasota, FL) with tip resistances of ~2 Mohms were used to form gigaseals on HEK cells. […] Currents were recorded with a patch-clamp amplifier (Axopatch 200B, […]) with a 1-KHz filter. […]
(§2) The control pipette solution contained 140 mM N-methyl D-glucamine, 2 mM MgCl2, and 10 mM HEPES adjusted to pH 7.2 with HCl. […] The bath solution contained (in mM) 140 N-methyl D-glucamine, 2 MgCl2, 10 HEPES, 10 chelator (EGTA, N(2-hydroxyethyl) ethylenediamine triacetic acid (HEDTA), or nitrilotriacetic acid (NTA)), and a calculated amount of CaCl2 (adjusted with HCl to pH 7.2). […] Free Ca^2+ less than 30 μM in each solution was monitored with Fura-2 fluorometry.

ANO1 [3] = assay: Block of Ca^2+-induced ANO1 currents by helix peptides, inside-out patches; type: cell-based, mouse; details: 3 μM Ca^2+, E h = +80 mV
Method: Fig. 4 The reference helix of the ICL3 region interacts with the Ca^2+ sensor helix in a Ca^2+-dependent way. a, b Physical interaction between the reference and Ca^2+ sensor helices was assessed with a surface plasmon resonance assay. Biotinylated Ca^2+ sensor helix peptide (692-NLEPFAGLTPEYMEM-706) was immobilized on a streptavidin-coated gold sensor chip. Resonance intensities were measured after solutions containing 0, 0.4, and 2.0 mM Ca^2+ and various concentrations of reference helix peptide (651-[…]-671) (a) or its Ala-substituted mutants (651-[…]-671) (b) were flowed through the gold chip. […] Ca^2+ (3 μM) was applied three times to inside-out patches of ANO1-transfected HEK cells. At the second Ca^2+ challenge, the peptides were also given. […] Current amplitudes were normalized to the current amplitude obtained after of the first Ca^2+ challenge. At the second Ca^2+ challenge, reference helix peptide (black circle, **p < 0.01 compared to the relative response of vehicle application, one-way ANOVA, Newman-Keuls post hoc test, n = 13), Ala-replaced reference helix peptide (black inverted triangle, n = 8), the Ca^2+ sensor helix peptide (700-TPEYMEMIIQFGF-712) (black square, **p < 0.01 compared to the relative response of vehicle application, one-way ANOVA, Newman-Keuls post hoc test, n = 7), and vehicle (white circle, n = 8) were also applied […]
as §1, §2

[4] = tested on: biotinylated Ca^2+ sensor helix peptide of ANO1 (692-NLEPFAGLTPEYMEM-706); assay: Surface plasmon resonance, binding to immobilized Ca^2+ sensor helix peptide; set-up: species or system mouse
Method: According to the gating hypothesis, physical binding of the two helices and the interference of Ca^2+ in this interaction are key determinants for gating ANO1. To investigate this relationship, physical interaction between the two helices was measured using surface plasmon resonance. A peptide segment (692-NLEPFAGLTPEYMEM-706) spanning the Ca^2+ sensor helix of ANO1 was synthesized, biotinylated at the N-terminus, and immobilized on a streptavidin-coated gold sensor chip. Subsequently, a synthetic peptide spanning the reference helix (651-[…]-671) was passed over the immobilized Ca^2+ sensor helix.
A Biacore 3000 was used for kinetic surface plasmon resonance measurement as previously described. Briefly, a biotinylated peptide (692-NLEPFAGLTPEYMEM-706) was immobilized on a SA chip or custom streptavidin-coated CM5 sensor chip (GE Healthcare), with one flow cell with biotin alone as a reference cell. For the binding assay, HEPES-buffered saline containing 0.005 % of Tween 20 was used as a running buffer. Various concentrations of the reference helix peptide (aa 651–671) were injected for 120 s and dissociated for 240 s at a flow rate of 20 μL/min. Binding curves were analyzed using BIAevaluation 3.1.

[5] = tested on: ANO1 285-AGAYAGA-291 mutant; assay: Eact activation of ANO1 EF-hand-like region mutant; type: cell-based, mouse; details: data not shown
Method: (§3) Eact, a synthetic agonist of ANO1, was synthesized for the purpose of treating cystic fibrosis in an attempt to bypass dysfunctioning CFTR channel. Even though Eact was known to activate ANO1, the activation mechanism is not known. We therefore hypothesized that Eact also acts on the ICL3 region.
(§4) All mutants were generated from the wild-type construct, mouse ANO1 (pEGFP-N1-mANO1). Amino acid substitution or deletion mutants were prepared using a site-directed mutagenesis kit (Muta-direct, iNtRON Biotech) or by using the overlap PCR method. Mutations in all mutants were confirmed by sequencing whole nucleotide sequences. […]
as §1, §2

ANO1 QYMQ mutant = assay: Eact activation of ANO1 Ca^2+ sensor helix mutant; type: cell-based, mouse; details: data not shown
Method: as §3, §4, §1, §2

Δ5E ANO1 mutant = assay: Eact activation of Δ5E ANO1 mutant, inside-out patches; type: cell-based, mouse; details: maximal Eact (10 μM)
Method: as §3, §4, §1, §2

[6] = tested on: ANO1 659-QMQQFIAYLQ-668 mutant; assay: Eact activation of ANO1 reference helix mutant; type: cell-based, mouse
Method: as §3, §4, §1, §2

[7] = tested on: ΔICL3, the deletion mutant of ANO1 in the ICL3 region; assay: Eact activation of ΔICL3 ANO1 mutant; type: cell-based, mouse
Method: as §3, §4, §1, §2

ANO1 [8] = assay: Eact activation of ANO1, inside-out patches; type: cell-based, mouse; details: 1 μM Eact to bath of inside-out patch
Method: as §3, §4, §1, §2

[9] = target: T1, Ca2+ sensor helix peptide of ANO1 (692-NLEPFAGLTPEYMEM-706), biotinylated (mouse); assay: SPR; Biacore 3000; biotinylated Ca2+ sensor helix peptide immobilised on an SA chip or custom streptavidin-coated CM5 chip, reference cell with biotin alone; HEPES-buffered saline with 0.005 % Tween 20; various concentrations of reference helix peptide injected for 120 s, dissociation 240 s, 20 uL/min; solutions with 0, 0.4 and 2.0 mM Ca2+ (Ca2+ reduced the interaction dose-dependently); details: both partners purified
T1 construct: Anoctamin 1 (ANO1/TMEM16A), mouse, residues 692-706, Ca2+ sensor helix of the third intracellular loop (ICL3); Held on the streptavidin chip by its N-terminal biotin; also called biotinylated Ca2+ sensor helix peptide; source: synthetic peptide
T1 peptide: Biotin-NLEPFAGLTPEYMEM

604-IFEIGVPKLKKLFRKLKD-621
circular dichroism spectrum [1]: typical circular dichroism spectrum of an α-helix with a positive band around 192 nm and negative bands around 208 and 222 nm

651-NLFEIGIPAMAAFIAYLALAA-671 [Ala-mutant reference helix peptide]
effect on Eact-activated ANO1 currents (ANO1 [2]; Ala-substituted peptide with 1 μM Eact): failed to inhibit | effect on Ca^2+-induced ANO1 currents (ANO1 [3]; 4 μM Ala-mutant peptide, n = 8): failed to block | interaction with Ca^2+ sensor helix peptide ([4]; regardless of Ca^2+ concentration (0, 0.4 and 2.0 mM)): failed to show any interaction

651-NLFEIGIPKMKKFIRYLKLRR-671 [reference helix peptide]
effect on Eact-activated ANO1 currents (ANO1 [2]; 4 μM peptide with 1 μM Eact, p < 0.05 vs vehicle, one-way ANOVA, Newman-Keuls): significantly inhibited | effect on Ca^2+-induced ANO1 currents (ANO1 [3]; 4 μM peptide, p < 0.01 vs vehicle, one-way ANOVA, Newman-Keuls, n = 13): markedly blocked | interaction with Ca^2+ sensor helix peptide ([4]; absence of Ca^2+, Biacore 3000, HEPES-buffered saline, 0.005 % Tween 20, 20 μL/min, 120 s injection, 240 s dissociation): interacted strongly with the Ca^2+ sensor helix

652-LFEIGIPKMKKFIRYLKL-669
circular dichroism spectrum [1]: typical circular dichroism spectrum of an α-helix with a positive band around 192 nm and negative bands around 208 and 222 nm

700-TPEYMEMIIQFGF-712 [Ca^2+ sensor helix peptide, Ca^2+ sensor helix peptide (700-…-712)]
effect on Eact-activated ANO1 currents (ANO1 [2]; 10 μM peptide with 1 μM Eact): failed to inhibit | effect on Ca^2+-induced ANO1 currents (ANO1 [3]; 10 μM peptide, p < 0.01 vs vehicle, one-way ANOVA, Newman-Keuls, n = 7): markedly blocked

COCCN(C(=O)c1cc(OC)c(OC)c(OC)c1)c1nc(-c2ccccc2)cs1 [Eact]
activation by Eact [5]: activated 285-AGAYAGA-291 mutant | activation by Eact (ANO1 QYMQ mutant): failed to activate | activation by Eact (Δ5E ANO1 mutant): activated the Δ5E ANO1 mutant | activation by Eact [6]: failed to activate | activation by Eact [7]: failed to activate | activation of ANO1 by Eact (ANO1 [8]): activated ANO1

B1: reference helix peptide of ANO1 (651-NLFEIGIPKMKKFIRYLKLRR-671) (peptide)
peptide: NLFEIGIPKMKKFIRYLKLRR
notes: source: synthetic peptide
binding result [9]: binds
